Structures are written as SMILES. Bounds are passed on as bounds.

What is called Ki is the dissociation constant of the complex between target and ligand, obtained from inhibition or displacement. A lower Ki goes with higher affinity.

In test [1] the target is 5-hydroxytryptamine receptor 2B (Homo sapiens, UniProt P41595). The experiment in a line: The compound was tested for the binding affinity towards human cloned 5-hydroxytryptamine 2B receptor in HEK293 cells, using [3H]5-HT as radioligand. Format: cell-based.
Test [2] deals with D(2) dopamine receptor (Homo sapiens, UniProt P14416). As to the kind of experiment: The compound was tested for the binding affinity towards human cloned Dopamine receptor D2 in CHO cells, using [125I]iodosulpride as radioligand. Format: cell-based.
Test [3] concerns the target 5-hydroxytryptamine receptor 1D (Homo sapiens, UniProt P28221). The experiment in a line: The compound was tested for the binding affinity towards human cloned 5-hydroxytryptamine 1D receptor in CHO cells, using [3H]5-HT as radioligand. In kind it is cell-based.
Test [4] deals with 5-hydroxytryptamine receptor 4 (Homo sapiens, UniProt Q13639). The experiment in a line: The compound was tested for the binding affinity towards human cloned 5-hydroxytryptamine 4 receptor in HeLa cells, using [3H]LSD as radioligand. In kind it is cell-based.
Test [5] concerns the target T1, 5-hydroxytryptamine receptor 1A (Homo sapiens, UniProt P08908).
T1 sequence (P08908 whole entry): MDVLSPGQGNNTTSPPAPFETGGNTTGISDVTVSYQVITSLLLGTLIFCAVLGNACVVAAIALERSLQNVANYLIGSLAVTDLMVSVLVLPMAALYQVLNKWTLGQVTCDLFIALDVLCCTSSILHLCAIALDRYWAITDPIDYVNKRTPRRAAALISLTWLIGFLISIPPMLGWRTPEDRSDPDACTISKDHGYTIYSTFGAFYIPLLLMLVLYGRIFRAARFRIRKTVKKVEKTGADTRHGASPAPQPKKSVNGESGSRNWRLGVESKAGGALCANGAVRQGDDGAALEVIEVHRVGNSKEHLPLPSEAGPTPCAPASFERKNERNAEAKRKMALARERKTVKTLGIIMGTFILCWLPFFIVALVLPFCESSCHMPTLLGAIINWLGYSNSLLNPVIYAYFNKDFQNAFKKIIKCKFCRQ
The experiment in a line: The compound was tested for the binding affinity towards human cloned 5-hydroxytryptamine 1A receptor in HEK293 cells, using [3H]8-OH-DPAT as radioligand. In kind it is cell-based.

The target of test [6] is D(3) dopamine receptor (Homo sapiens, UniProt P35462). As to the kind of experiment: The compound was tested for the binding affinity towards human cloned Dopamine receptor D3 in CHO cells, using [125I]iodosulpride as radioligand. Format: cell-based.
In test [7] the target is T2, Alpha-1B adrenergic receptor (Homo sapiens, UniProt P35368).
T2 sequence (P35368 whole entry): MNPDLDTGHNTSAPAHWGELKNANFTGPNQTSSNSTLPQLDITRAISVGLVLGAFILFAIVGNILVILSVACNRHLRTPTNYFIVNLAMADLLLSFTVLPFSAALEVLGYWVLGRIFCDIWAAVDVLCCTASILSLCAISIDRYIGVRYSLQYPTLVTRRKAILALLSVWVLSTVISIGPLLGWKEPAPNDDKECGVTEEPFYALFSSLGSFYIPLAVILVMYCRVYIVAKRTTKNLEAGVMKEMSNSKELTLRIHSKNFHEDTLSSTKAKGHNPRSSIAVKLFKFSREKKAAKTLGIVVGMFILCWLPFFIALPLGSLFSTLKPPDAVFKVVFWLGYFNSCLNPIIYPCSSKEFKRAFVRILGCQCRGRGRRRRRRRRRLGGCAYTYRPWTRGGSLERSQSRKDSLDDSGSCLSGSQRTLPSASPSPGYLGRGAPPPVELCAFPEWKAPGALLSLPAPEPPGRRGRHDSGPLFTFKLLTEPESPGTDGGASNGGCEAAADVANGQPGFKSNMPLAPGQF
The experiment in a line: The compound was tested for the binding affinity towards Alpha-1B adrenergic receptor.

Test [8] deals with T3, 5-hydroxytryptamine receptor 2C (Homo sapiens, UniProt P28335).
T3 sequence (P28335 whole entry): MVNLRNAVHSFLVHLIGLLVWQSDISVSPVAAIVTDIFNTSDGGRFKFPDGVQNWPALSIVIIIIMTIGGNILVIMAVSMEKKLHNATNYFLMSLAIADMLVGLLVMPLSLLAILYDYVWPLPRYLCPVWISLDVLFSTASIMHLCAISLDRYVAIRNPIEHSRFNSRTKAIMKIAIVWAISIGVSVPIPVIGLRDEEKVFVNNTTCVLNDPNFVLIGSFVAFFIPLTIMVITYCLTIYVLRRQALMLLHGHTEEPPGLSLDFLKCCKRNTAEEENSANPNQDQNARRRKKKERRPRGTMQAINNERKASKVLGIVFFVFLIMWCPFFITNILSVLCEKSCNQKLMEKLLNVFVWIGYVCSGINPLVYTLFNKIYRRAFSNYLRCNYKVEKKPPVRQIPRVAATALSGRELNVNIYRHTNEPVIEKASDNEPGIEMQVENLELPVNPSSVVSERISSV
As to the kind of experiment: The compound was tested for the binding affinity towards human cloned 5-hydroxytryptamine 2C receptor in HEK293 cells, using […] as radioligand. Format: cell-based.

Test [9] has as its target 5-hydroxytryptamine receptor 2A (Homo sapiens, UniProt P28223). The experiment in a line: The compound was tested for the binding affinity towards human cloned 5-hydroxytryptamine 2A receptor in HEK293 cells, using [3H]ketanserin as radioligand. Format: cell-based.
In test [10] the target is 5-hydroxytryptamine receptor 1E (Homo sapiens, UniProt P28566). The experiment in a line: The compound was tested for the binding affinity towards human cloned 5-hydroxytryptamine 1E receptor in CHO cells, using [3H]5-HT as radioligand. Format: cell-based.
Test [11] concerns the target 5-hydroxytryptamine receptor 1B (Homo sapiens, UniProt P28222). The experiment in a line: The compound was tested for the binding affinity towards human cloned 5-hydroxytryptamine 1B receptor in CHO cells, using [3H]5-HT as radioligand. In kind it is cell-based.
In test [12] the target is T4, 5-hydroxytryptamine receptor 1F (Homo sapiens, UniProt P30939).
T4 sequence (P30939 whole entry): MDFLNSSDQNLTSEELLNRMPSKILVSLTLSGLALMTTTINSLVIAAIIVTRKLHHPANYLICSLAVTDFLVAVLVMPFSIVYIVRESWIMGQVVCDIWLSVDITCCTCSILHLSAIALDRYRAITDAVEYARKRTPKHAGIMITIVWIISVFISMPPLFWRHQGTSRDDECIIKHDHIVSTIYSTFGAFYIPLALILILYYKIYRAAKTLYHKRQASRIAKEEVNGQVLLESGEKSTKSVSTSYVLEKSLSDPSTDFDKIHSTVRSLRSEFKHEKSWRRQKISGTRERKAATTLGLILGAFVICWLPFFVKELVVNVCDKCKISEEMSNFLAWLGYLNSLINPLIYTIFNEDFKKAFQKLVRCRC
As to the kind of experiment: The compound was tested for the binding affinity towards human cloned 5-hydroxytryptamine 1F receptor in CHO cells, using [3H]5-HT as radioligand. In kind it is cell-based.

Test [13] concerns the target 5-hydroxytryptamine receptor 7 (Homo sapiens, UniProt P34969). The experiment in a line: The compound was tested for the binding affinity towards human cloned 5-hydroxytryptamine 7 receptor in HEK293 cells, using [3H]5-CT as radioligand. In kind it is cell-based.
For test [14], the target named is T5, 5-hydroxytryptamine receptor 6 (Homo sapiens, UniProt P50406). As to the kind of experiment: The compound was tested for the binding affinity towards human cloned 5-hydroxytryptamine 6 receptor in HeLa cells, using […] as radioligand; n=3. Format: cell-based.
In test [15] the target is T5, 5-hydroxytryptamine receptor 6. As to the kind of experiment: The compound was tested for the binding affinity towards human cloned 5-hydroxytryptamine 6 receptor in HeLa cells, using […] as radioligand; n=9. Format: cell-based.

Sequence of D(3) dopamine receptor (P35462 whole entry): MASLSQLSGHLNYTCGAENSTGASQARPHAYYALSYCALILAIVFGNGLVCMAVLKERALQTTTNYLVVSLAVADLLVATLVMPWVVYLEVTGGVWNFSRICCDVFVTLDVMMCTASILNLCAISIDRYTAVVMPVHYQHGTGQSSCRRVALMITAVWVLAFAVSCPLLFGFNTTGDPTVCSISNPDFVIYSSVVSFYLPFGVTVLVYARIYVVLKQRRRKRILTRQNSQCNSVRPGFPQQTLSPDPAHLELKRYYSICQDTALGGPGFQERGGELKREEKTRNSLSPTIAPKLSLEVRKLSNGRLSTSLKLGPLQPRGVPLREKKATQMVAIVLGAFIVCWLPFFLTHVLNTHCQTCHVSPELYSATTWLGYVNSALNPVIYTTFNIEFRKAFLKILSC
Sequence of 5-hydroxytryptamine receptor 4 (Q13639 whole entry): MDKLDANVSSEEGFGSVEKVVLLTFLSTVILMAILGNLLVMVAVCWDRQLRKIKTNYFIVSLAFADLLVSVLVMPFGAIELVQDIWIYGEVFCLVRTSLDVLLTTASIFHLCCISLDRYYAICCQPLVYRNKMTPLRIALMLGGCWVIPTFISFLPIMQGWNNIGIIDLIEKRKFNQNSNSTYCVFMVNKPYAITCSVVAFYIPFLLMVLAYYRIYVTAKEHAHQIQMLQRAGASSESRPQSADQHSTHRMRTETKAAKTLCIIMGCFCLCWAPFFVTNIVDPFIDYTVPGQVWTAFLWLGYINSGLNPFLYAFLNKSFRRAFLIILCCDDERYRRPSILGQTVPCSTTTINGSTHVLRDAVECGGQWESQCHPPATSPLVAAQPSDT
Sequence of 5-hydroxytryptamine receptor 2B (P41595 whole entry): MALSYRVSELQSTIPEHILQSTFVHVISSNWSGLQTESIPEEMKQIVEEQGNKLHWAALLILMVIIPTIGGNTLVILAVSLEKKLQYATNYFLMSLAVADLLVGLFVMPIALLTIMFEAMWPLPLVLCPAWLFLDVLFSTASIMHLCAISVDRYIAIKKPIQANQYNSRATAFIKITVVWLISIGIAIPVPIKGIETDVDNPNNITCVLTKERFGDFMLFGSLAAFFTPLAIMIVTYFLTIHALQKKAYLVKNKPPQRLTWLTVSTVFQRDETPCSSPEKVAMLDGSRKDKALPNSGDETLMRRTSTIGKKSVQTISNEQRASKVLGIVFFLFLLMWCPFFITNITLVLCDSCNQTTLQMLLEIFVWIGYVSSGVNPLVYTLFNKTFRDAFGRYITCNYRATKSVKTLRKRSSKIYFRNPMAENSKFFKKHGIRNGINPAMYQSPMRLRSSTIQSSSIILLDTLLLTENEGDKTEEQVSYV
Sequence of 5-hydroxytryptamine receptor 1E (P28566 whole entry): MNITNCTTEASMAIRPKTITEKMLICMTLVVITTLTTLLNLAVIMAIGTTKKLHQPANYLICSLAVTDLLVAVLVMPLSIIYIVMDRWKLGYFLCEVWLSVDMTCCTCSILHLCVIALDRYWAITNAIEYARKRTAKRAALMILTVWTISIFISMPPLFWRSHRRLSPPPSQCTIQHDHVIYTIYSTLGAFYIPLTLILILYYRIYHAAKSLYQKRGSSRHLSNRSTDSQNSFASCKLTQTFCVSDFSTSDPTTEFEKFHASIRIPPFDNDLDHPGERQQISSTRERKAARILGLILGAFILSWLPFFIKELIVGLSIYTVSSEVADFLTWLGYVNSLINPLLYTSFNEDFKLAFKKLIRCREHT
Sequence of 5-hydroxytryptamine receptor 1B (P28222 whole entry): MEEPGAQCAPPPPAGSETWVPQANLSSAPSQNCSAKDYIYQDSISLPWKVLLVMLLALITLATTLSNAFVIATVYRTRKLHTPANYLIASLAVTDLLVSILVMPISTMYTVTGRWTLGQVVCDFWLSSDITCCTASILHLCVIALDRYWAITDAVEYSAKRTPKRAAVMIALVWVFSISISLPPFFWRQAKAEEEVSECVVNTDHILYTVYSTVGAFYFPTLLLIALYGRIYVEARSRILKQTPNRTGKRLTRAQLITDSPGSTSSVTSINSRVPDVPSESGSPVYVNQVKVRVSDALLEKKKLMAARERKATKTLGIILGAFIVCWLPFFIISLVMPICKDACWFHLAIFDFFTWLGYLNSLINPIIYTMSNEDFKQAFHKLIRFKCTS
Sequence of 5-hydroxytryptamine receptor 7 (P34969 whole entry): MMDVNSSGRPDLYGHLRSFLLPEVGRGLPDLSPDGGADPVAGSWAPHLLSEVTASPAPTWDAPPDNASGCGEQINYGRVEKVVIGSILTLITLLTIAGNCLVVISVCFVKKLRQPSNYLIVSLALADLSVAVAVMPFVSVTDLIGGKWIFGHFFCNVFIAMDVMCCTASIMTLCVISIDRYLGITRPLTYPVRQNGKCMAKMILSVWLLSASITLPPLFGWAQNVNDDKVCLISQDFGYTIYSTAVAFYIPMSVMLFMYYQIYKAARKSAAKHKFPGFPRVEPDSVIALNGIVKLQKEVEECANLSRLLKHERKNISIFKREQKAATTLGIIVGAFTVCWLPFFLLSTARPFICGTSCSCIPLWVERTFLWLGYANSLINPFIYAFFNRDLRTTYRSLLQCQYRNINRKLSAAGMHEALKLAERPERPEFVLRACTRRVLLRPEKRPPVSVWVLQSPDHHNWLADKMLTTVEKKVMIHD
Sequence of 5-hydroxytryptamine receptor 1D (P28221 whole entry): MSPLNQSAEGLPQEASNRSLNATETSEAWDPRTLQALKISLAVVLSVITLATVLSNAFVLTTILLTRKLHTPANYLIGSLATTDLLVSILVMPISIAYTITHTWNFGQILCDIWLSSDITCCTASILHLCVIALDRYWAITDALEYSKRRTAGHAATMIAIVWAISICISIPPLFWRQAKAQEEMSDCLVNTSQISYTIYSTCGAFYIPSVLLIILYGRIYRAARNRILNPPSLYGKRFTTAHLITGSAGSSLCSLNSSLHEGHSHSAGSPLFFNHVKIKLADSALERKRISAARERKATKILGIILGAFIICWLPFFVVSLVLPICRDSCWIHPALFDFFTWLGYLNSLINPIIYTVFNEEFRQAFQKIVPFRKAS
Sequence of D(2) dopamine receptor (P14416 whole entry): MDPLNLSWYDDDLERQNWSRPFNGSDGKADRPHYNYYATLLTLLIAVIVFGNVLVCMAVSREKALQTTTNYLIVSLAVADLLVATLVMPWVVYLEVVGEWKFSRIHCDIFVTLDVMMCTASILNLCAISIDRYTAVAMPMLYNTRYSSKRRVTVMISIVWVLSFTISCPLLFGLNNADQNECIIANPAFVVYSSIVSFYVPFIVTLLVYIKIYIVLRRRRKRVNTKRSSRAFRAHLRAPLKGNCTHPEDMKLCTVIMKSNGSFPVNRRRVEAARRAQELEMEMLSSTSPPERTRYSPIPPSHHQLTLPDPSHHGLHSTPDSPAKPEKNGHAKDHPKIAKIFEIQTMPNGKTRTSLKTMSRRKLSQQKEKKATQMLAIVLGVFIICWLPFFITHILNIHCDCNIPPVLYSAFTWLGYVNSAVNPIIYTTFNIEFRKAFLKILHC
Sequence of 5-hydroxytryptamine receptor 2A (P28223 whole entry): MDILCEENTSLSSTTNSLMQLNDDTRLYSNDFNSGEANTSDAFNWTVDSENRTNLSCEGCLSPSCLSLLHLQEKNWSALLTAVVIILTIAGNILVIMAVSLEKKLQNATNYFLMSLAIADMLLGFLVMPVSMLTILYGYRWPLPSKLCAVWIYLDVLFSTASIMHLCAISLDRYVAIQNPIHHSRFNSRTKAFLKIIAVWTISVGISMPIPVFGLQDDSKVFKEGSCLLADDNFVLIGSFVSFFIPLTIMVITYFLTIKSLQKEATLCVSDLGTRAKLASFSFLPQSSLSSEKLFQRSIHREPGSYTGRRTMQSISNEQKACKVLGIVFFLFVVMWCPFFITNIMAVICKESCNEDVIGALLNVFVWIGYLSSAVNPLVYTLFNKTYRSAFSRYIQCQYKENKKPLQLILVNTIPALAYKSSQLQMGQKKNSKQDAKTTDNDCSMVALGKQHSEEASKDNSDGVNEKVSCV
T5 sequence (P50406 whole entry): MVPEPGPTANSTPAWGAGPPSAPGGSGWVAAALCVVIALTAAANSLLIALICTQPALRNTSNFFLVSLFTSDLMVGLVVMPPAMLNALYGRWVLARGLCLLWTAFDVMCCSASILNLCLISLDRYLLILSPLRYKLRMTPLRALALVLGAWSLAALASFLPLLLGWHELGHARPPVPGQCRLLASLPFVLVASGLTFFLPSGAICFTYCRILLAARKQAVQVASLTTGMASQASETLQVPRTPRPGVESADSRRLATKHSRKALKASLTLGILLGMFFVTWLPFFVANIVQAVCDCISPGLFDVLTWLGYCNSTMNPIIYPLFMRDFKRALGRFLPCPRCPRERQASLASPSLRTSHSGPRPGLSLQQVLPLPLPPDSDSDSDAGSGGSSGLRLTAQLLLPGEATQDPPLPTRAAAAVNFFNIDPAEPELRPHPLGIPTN

Regarding `COc1ccc(NS(=O)(=O)c2sc3ccc(Cl)cc3c2C)cc1N1CCN2CCC[C@@H]2C1`, the Ki is 1260 nM in test [1]; 2000 nM in test [2]; 126 nM in test [3]; 1580 nM in test [4]; 200 nM in test [5]; 631 nM in test [6]. Further, the Ki is 1000 nM in test [7]; 631 nM in test [8]; 1260 nM in test [9]; 1000 nM in test [10]; 631 nM in test [11]; 200 nM in test [12]. Moreover, the Ki in test [13] was 631 nM; in test [14] it was 0.794 nM.

Turning to `COc1ccc(NS(=O)(=O)c2sc3ccc(Cl)cc3c2C)cc1N1CCN2CCCCC2C1` (configuration not stated), the Ki in [1] is 2000 nM; in test [2], 398 nM; in [3], 316 nM; in test [4], above 7940 nM; in test [5], 631 nM; in [6] it was 1000 nM. Also, the Ki was 2000 nM in test [7]; above 3160 nM in test [8]; 631 nM in [9]; above 1000 nM in test [10]; 3980 nM in [11]; above 1000 nM in test [12]. Moreover, the Ki is above 7940 nM in [13] and 5.01 nM in [14].

Turning to `COc1ccc(NS(=O)(=O)c2sc3ccc(Cl)cc3c2C)cc1N1CCN2CCC[C@H]2C1`, the Ki in test [1] was 1260 nM; in test [2], 1580 nM; in test [3] it was 100 nM; in test [4], 5010 nM; in [5], 126 nM; in [6], 316 nM. For the same compound, the Ki is 1580 nM in test [7]; 398 nM in [8]; 251 nM in test [9]; 1580 nM in test [10]; 0.794 nM in [15]; 631 nM in [11]. Also, the results for the Ki in test [12] and in [13] were 316 nM and 1000 nM, respectively.

The record behind these values is ChEMBL document CHEMBL1135108, “Bicyclic piperazinylbenzenesulphonamides are potent and selective 5-HT6 receptor antagonists” (Bioorg Med Chem Lett, 2002).
